Experiments:
JAK3 kinase = JAK3 kinase (Homo sapiens (Human), UniProt P52333); experiment: JAK3 Homogeneous Time Resolved Fluorescence (HTRF) Assay; type: binding; conditions: for IC50: competition binding with fluorescein-labeled ATP competitive probe; for Ratio of JAK3 IC50 to IRAK4 IC50: selectivity for IRAK4 over JAK3
Experimental: JAK3 Homogeneous Time Resolved Fluorescence (HTRF) Assay
A time resolved FRET-based competition binding assay was used to assess test article binding to JAK3 kinase. His-tagged or GST-tagged kinase at a concentration of 1 nM was incubated with 0.2 nM Tb-labeled detection antibody (anti-His or anti-GST), test compound, and fluorescein-labeled ATP competitive probe at a concentration corresponding to the probe's equilibrium dissociation constant for one hour. Fluorescence at 495 nm and 520 nm was measured using an EnVision microplate reader to quantify FRET between Tb-labeled detection antibody and fluorescein-labeled probe. Background subtracted FRET ratios were normalized to the maximum signal obtained in the absence of test compound. These values were converted to a percent inhibition. Percent inhibition was determined for test compounds at 11 concentrations. The IC50, defined as the concentration of the competing test compound needed to reduce specific binding of the probe by 50%, was calculated using the 4 parameter logistic equation to fit the data.

IRAK4 = IRAK4 (Homo sapiens (Human), UniProt Q9NWZ3); experiment: IRAK4 Inhibition Assay; type: biochemical; conditions: ATP 500 μM; IRAK4 0.6 nM; 60 min room temperature
Sequence of IRAK4 (Q9NWZ3 whole entry, species assumed): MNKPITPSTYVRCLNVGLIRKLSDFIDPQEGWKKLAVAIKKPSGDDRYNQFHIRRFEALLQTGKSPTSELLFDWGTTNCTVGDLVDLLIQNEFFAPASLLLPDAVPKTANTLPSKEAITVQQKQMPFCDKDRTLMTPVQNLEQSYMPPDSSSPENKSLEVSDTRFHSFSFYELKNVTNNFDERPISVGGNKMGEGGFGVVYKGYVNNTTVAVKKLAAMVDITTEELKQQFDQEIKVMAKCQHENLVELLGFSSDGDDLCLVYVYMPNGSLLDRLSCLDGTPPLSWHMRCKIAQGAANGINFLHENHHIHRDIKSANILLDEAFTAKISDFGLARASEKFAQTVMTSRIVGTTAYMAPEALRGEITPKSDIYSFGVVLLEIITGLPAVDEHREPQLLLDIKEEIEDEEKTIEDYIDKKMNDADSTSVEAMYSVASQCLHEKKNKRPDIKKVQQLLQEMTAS
Experimental: IRAK4 Inhibition Assay The assays were performed in U-bottom 384-well plates. […] The reaction was initiated by the combination of IRAK4 with substrates and test compounds. The reaction mixture was incubated at room temperature for 60 min. and terminated by adding 45 μL of 35 mM EDTA to each sample. The reaction mixture was analyzed on the Caliper LABCHIP® 3000 (Caliper, Hopkinton, MA) by electrophoretic separation of the fluorescent substrate and phosphorylated product. Inhibition data were calculated by comparison to no enzyme control reactions for 100% inhibition and vehicle-only reactions for 0% inhibition.

Sequence of JAK3 kinase (P52333 whole entry): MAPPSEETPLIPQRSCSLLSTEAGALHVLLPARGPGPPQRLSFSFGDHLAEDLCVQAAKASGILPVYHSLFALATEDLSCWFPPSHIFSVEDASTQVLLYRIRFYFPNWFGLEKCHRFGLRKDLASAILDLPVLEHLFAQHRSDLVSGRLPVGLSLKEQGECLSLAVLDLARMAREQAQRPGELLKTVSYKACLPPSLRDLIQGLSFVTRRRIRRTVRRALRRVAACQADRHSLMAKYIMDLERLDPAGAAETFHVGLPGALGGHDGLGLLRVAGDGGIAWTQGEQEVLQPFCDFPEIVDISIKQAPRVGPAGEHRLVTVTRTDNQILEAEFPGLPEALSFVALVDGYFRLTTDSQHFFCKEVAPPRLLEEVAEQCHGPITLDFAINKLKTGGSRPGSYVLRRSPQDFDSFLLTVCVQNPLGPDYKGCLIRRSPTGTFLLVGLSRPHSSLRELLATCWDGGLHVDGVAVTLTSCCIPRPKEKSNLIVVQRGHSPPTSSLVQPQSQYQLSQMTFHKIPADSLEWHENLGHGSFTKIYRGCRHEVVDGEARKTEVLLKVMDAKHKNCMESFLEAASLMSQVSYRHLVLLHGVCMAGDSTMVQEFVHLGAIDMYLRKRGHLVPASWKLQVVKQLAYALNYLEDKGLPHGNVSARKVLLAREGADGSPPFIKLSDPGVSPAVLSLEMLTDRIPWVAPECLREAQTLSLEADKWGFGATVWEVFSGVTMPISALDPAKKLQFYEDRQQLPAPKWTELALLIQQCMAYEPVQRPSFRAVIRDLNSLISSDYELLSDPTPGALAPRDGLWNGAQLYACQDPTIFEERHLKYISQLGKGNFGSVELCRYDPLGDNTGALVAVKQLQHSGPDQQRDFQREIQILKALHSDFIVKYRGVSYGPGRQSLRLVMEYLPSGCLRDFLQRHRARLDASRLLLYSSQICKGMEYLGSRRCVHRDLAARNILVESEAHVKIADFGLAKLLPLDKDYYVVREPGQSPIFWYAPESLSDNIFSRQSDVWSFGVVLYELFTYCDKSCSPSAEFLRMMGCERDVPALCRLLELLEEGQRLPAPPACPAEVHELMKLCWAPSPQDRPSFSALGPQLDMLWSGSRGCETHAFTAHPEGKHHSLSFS

In the case of CC(C)Nc1c(C(=O)NC[C@@H](F)C(C)(C)O)cnn2cc(Nc3ncc(C#N)cc3Cl)cc12 [Example 42, (R)-6-((3-chloro-5-cyanopyridin-2-yl)amino)-N-(2-fluoro-3-hydroxy-3-methylbutyl)-4-(isopropylamino)pyrrolo[1,2-b]pyridazine-3-carboxamide], the IC50 (JAK3 kinase) is reported as > 50000 nM, the “Ratio of JAK3 IC50 to IRAK4 IC50” value (JAK3 kinase) is reported as >1923 and the IC50 (IRAK4) is reported as 26 nM.
For CC(C)Nc1c(C(=O)NC[C@@H](F)C(C)(C)O)cnc2cc(-c3cncc(C(C)(C)O)c3)nn12 [Example 150, (R)—N-(2-fluoro-3-hydroxy-3-methylbutyl)-2-(5-(2-hydroxypropan-2-yl)pyridin-3-yl)-7-(isopropylamino)pyrazolo[1,5-a]pyrimidine-6-carboxamide], the IC50 (JAK3 kinase) was > 10000 nM, the “Ratio of JAK3 IC50 to IRAK4 IC50” value (JAK3 kinase) was >18 and the IC50 (IRAK4) was 560 nM.
For CNC(=O)c1cncc(-c2cc3ncc(C(=O)NC[C@@H](F)C(C)(C)O)c(NC(C)C)n3n2)c1 [Example 156, (R)—N-(2-fluoro-3-hydroxy-3-methylbutyl)-7-(isopropylamino)-2-(5-(methylcarbamoyl)pyridin-3-yl)pyrazolo[1,5-a]pyrimidine-6-carboxamide], the IC50 (JAK3 kinase) was > 10000 nM, the “Ratio of JAK3 IC50 to IRAK4 IC50” value (JAK3 kinase) was >11 and the IC50 (IRAK4) was 910 nM.
CC(C)(O)[C@H](F)CNC(=O)c1cnn2cc(-c3ccccc3)cc2c1NC1CC1 [Example 31, (R)-4-(cyclopropylamino)-N-(2-fluoro-3-hydroxy-3-methylbutyl)-6-phenylpyrrolo[1,2-b] pyridazine-3-carboxamide] was tested, and the IC50 (JAK3 kinase) was > 2000 nM, the “Ratio of JAK3 IC50 to IRAK4 IC50” value (JAK3 kinase) was >61 and the IC50 (IRAK4) was 33 nM.
With CC(=O)N[C@H]1CC[C@H](NC(=O)c2cnn3cc(-c4ccc(F)cn4)cc3c2NC(C)C)CC1 [Example 82, N-((1r,4r)-4-acetamidocyclohexyl)-6-(5-fluoropyridin-2-yl)-4-(isopropylamino)pyrrolo[1,2-b]pyridazine-3-carboxamide] the IC50 (JAK3 kinase) was > 50000 nM, the “Ratio of JAK3 IC50 to IRAK4 IC50” value (JAK3 kinase) was >1471 and the IC50 (IRAK4) was 34 nM.
For CC(C)Nc1c(C(=O)NC[C@@H](F)C(C)(C)O)cnn2cc(-c3ccc(F)cn3)cc12 [Example 18, (R)—N-(2-fluoro-3-hydroxy-3-methylbutyl)-6-(5-fluoropyridin-2-yl)-4-(isopropylamino)pyrrolo[1,2-b]pyridazine-3-carboxamide], the IC50 (JAK3 kinase) was > 50000 nM, the “Ratio of JAK3 IC50 to IRAK4 IC50” value (JAK3 kinase) was >4167 and the IC50 (IRAK4) was 12 nM.
For CC(C)Nc1c(C(=O)NC[C@@H](F)C(C)(C)O)cnc2cc(-c3cccc(N)c3)nn12 [Example 157, (R)-2-(3-aminophenyl)-N-(2-fluoro-3-hydroxy-3-methylbutyl)-7-(isopropylamino) pyrazolo[1,5-a]pyrimidine-6-carboxamide], the IC50 (JAK3 kinase) was > 50000 nM, the “Ratio of JAK3 IC50 to IRAK4 IC50” value (JAK3 kinase) was >1613 and the IC50 (IRAK4) was 31 nM.
In the case of CC(C)(O)[C@H](F)CNC(=O)c1cnc2cc(-c3cccnc3)nn2c1NCC(F)F [Example 129, (R)-7-((2,2-difluoroethyl)amino)-N-(2-fluoro-3-hydroxy-3-methylbutyl)-2-(pyridin-3-yl) pyrazolo[1,5-a]pyrimidine-6-carboxamide], the IC50 (JAK3 kinase) is reported as > 10000 nM, the “Ratio of JAK3 IC50 to IRAK4 IC50” value (JAK3 kinase) is reported as >33 and the IC50 (IRAK4) is reported as 300 nM.
CNC(=O)c1cnc2cc(-c3ccncc3)nn2c1NC(C)C [Example 120, 7-(isopropylamino)-N-methyl-2-(pyridin-4-yl)pyrazolo[1,5-a]pyrimidine-6-carboxamide] showed an IC50 (IRAK4) of 410 nM.
CC(C)(O)CCNc1c(C(=O)NC[C@@H](F)C(C)(C)O)cnn2cc(-c3ccc(C#N)nc3)cc12 [Example 27, (R)-6-(6-cyanopyridin-3-yl)-N-(2-fluoro-3-hydroxy-3-methylbutyl)-4-((3-hydroxy-3-methylbutyl)amino)pyrrolo[1,2-b]pyridazine-3-carboxamide] was tested, and the IC50 (JAK3 kinase) was > 50000 nM, the “Ratio of JAK3 IC50 to IRAK4 IC50” value (JAK3 kinase) was >208 and the IC50 (IRAK4) was 240 nM.
In the case of CC(C)Nc1c(C(=O)N[C@H]2CC[C@H](O)CC2)cnn2cc(-c3cccnc3)cc12 [Example 58, N-((1r,4r)-4-hydroxycyclohexyl)-4-(isopropylamino)-6-(pyridin-3-yl)pyrrolo[1,2-b]pyridazine-3-carboxamide], the IC50 (JAK3 kinase) is reported as > 50000 nM, the “Ratio of JAK3 IC50 to IRAK4 IC50” value (JAK3 kinase) is reported as >926 and the IC50 (IRAK4) is reported as 54 nM.
CC(C)Nc1c(C(=O)NC[C@@H](F)C(C)(C)O)cnc2cc(-c3cccc(=O)[nH]3)nn12 [Example 145, (R)—N-(2-fluoro-3-hydroxy-3-methylbutyl)-7-(isopropylamino)-2-(6-oxo-1,6-dihydropyridin-2-yl) pyrazolo[1,5-a]pyrimidine-6-carboxamide] was tested, and the IC50 (JAK3 kinase) was > 50000 nM, the “Ratio of JAK3 IC50 to IRAK4 IC50” value (JAK3 kinase) was >167 and the IC50 (IRAK4) was 300 nM.
With CNC(=O)[C@H]1CC[C@H](NC(=O)c2cnn3cc(-c4ccc(C(N)=O)nc4)cc3c2NC(C)C)CC1 [Example 95, 6-(6-carbamoylpyridin-3-yl)-4-(isopropylamino)-N-((1r,4r)-4-(methylcarbamoyl)cyclohexyl)pyrrolo[1,2-b]pyridazine-3-carboxamide] the IC50 (IRAK4) was 35 nM.
Compound CNC(=O)c1cnc2cc(-c3ccnc(N4CCOCC4)c3)nn2c1NC(C)C [Example 119, 7-(isopropylamino)-N-methyl-2-(2-morpholinopyridin-4-yl)pyrazolo[1,5-a]pyrimidine-6-carboxamide] has an IC50 (IRAK4) of 2930 nM.
In the case of CC(C)Nc1c(C(=O)NC[C@@H](F)C(C)(C)O)cnn2cc(-c3nccs3)cc12 [Example 17, (R)—N-(2-fluoro-3-hydroxy-3-methylbutyl)-4-(isopropylamino)-6-(thiazol-2-yl)pyrrolo[1,2-b]pyridazine-3-carboxamide], the IC50 (IRAK4) is reported as 6.3 nM.
CNC(=O)c1cnc2cc(-c3ccc(C#N)cc3)nn2c1NC(C)C [Example 118, 2-(4-cyanophenyl)-7-(isopropylamino)-N-methylpyrazolo[1,5-a] pyrimidine-6-carboxamide] showed an IC50 (IRAK4) of 240 nM.
With CNC(=O)c1cnc2cc(-c3ccc4ncsc4c3)nn2c1NC(C)C [Example 121, 2-(benzo[d]thiazol-6-yl)-7-(isopropylamino)-N-methylpyrazolo[1,5-a]pyrimidine-6-carboxamide] the IC50 (IRAK4) was 590 nM.
CNC(=O)c1cnc2cc(-c3ccccc3)nn2c1N[C@H](CO)Cc1ccccc1 [Example 116, (S)-7-((1-hydroxy-3-phenylpropan-2-yl)amino)-N-methyl-2-phenylpyrazolo[1,5-a]pyrimidine-6-carboxamide] was tested, and the IC50 (IRAK4) was 1620 nM.
In the case of CC(C)Nc1c(C(=O)NC[C@@H](F)C(C)(C)O)cnc2cc(-c3nccs3)nn12 [Example 158, (R)—N-(2-fluoro-3-hydroxy-3-methylbutyl)-7-(isopropylamino)-2-(thiazol-2-yl)pyrazolo[1,5-a]pyrimidine-6-carboxamide], the IC50 (IRAK4) is reported as 20 nM.
Compound CNC(=O)c1cnc2cc(-c3ccccc3)nn2c1NC1CCCCC1 [Example 117, 7-(cyclohexylamino)-N-methyl-2-phenylpyrazolo[1,5-a]pyrimidine-6-carboxamide] has an IC50 (IRAK4) of 5570 nM.
CNC(=O)[C@H]1CC[C@H](NC(=O)c2cnn3cc(-c4ccc(C#N)nc4)cc3c2NC(C)C)CC1 [Example 94, 6-(6-cyanopyridin-3-yl)-4-(isopropylamino)-N-((1r,4r)-4-(methylcarbamoyl)cyclohexyl) pyrrolo[1,2-b]pyridazine-3-carboxamide] was tested, and the IC50 (IRAK4) was 14 nM.
With CC(C)(O)[C@H](F)CNC(=O)c1cnn2cc(-c3ccccc3)cc2c1NC1CCCC1 [Example 29, (R)-4-(cyclopentylamino)-N-(2-fluoro-3-hydroxy-3-methylbutyl)-6-phenylpyrrolo[1,2-b] pyridazine-3-carboxamide] the IC50 (IRAK4) was 180 nM.

Reference: patent US12570659B2, “Bicyclic heteroaryl compounds useful as IRAK4 inhibitors” (BRISTOL-MYERS SQUIBB COMPANY, priority 2019, dated 2026)
